Results taken from patent US20240180956A1, “A VAGINAL CONTRACEPTIVE COMPOSITION FOR REINFORCEMENT OF THE CERVICAL MUCUS BARRIER PROPERTIES” (CIRQLE BIOMEDICAL CONTRACEPTION APS, priority 2021, published 2024).

Test system: human ovulatory cervical mucus
Assay: Sperm penetration through human cervical ovulatory mucus (capillary assay, phase contrast microscopy)
Assay type: cell-based
Settings: PLL 5 mg/mL in 32.5 mM lactic acid; 30 minutes after exposure to undiluted sperm; vs lactic acid solution alone or untreated
Procedure: All chitosans were dissolved in a 100 mM or a 32.5 mM lactic acid solution at a concentration of 0.5% (w/v chitosan) and adjusted to pH 5.5 (pH±0.02) by the use of 0.1 or 1 M hydrochloric acid (HCl, Merck KgaA, Germany), and 0.1 or 1 M sodium hydroxide (NaOH, CPAchem Ltd., Bulgaria) or 50% NaOH (Sigma-Aldrich, USA).
Semen samples of patients and volunteers collected at the Andrology, Sexual Medicine, Transmedicine, clinic (ANOVA, Karolinska University Hospital, Sweden) were run through standard semen kinematic analyses and sperm penetration assays no later than 3 h after collection. Data were obtained for the collection time, abstinence time, and semen volume.
Semen was gently liquefied for 30 min on a rocker in an incubation chamber heated up to 37° C., after complete collection of ejaculates by masturbation. The viscosity of semen was determined visually and by pipetting. Semen was microscopically analysed by pipetting 6 μl of specimen in pre-warmed Leja® (Netherland) counting chamber slides (20 micron). Subsequently, specimens were assessed via clinical ECLIPSE 50i microscope (Nikon Instruments, Japan) equipped with stage heater MS 100 (37° C., Linkam Scientific Instruments, UK), 10× objective (Ph1) and 0.5× charge coupled device camera UI-1540LE-M-HQ (IDS Imaging Development Systems GmbH, Germany) with total magnification of 5×. […]

## poly-L-lysine [PLL]
  sperm detected throughout the capillary filled with ovulatory cervical mucus: Less sperm was detected
